# Values quoted from earlier work in publication PMC11686138 (Nature Communications, 2024).
# Target: CLDN4
# Conditions: reported KD
sequence,measurement,value
NSSYSGNYYSIL [Cpe30 MT2],Kd,1.97 nM
